The supplement of paper PMC7840683
Where a name gives a salt, the structure may show the parent alone.

System: HepaRG
Experiment: LDH release cytotoxicity, % of total lysis control; higher = more cytotoxic
Details: 48 h
In short: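 Single-lot HepaRG cells in collagen I-coated 96-well plates were treated for 48 h in serum-free induction medium containing 0.5% DMSO with test chemicals in eight-point half-log series up to 100 µM. For total lysis, wells received 0.1% Triton X. LDH in 50 µL spent medium was assayed by resorufin fluorescence with CytoTox-ONE. Percent cytotoxicity was normalized to the on-plate vehicle and total lysis controls, with duplicates averaged.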

CCc1nc(N)nc(N)c1-c1ccc(Cl)cc1 [Pyrimethamine]
Details	LDH release cytotoxicity [%]
0.03162 µM	-0.622
0.1 µM	-0.806
0.3162278 µM	0.238
1 µM	0.679
3.16228 µM	1.89
10 µM	4.04
31.6228 µM	2.08
100 µM	14.2

Cc1cc(C)nc(Nc2ccccc2)n1 [Pyrimethanil]
Details	LDH release cytotoxicity [%]
0.03162 µM	-0.263
0.1 µM	-1.12
0.3162278 µM	-0.512
1 µM	-1.63
3.16228 µM	-0.622
10 µM	-0.288
31.6228 µM	0.157
100 µM	3.8

CC(COc1ccc(Oc2ccccc2)cc1)Oc1ccccn1 (centres undefined) [Pyriproxyfen]
Details	LDH release cytotoxicity [%]
0.031623 µM	-1.46
0.1 µM	-2.74
0.316228 µM	-2.85
1 µM	-3
3.16228 µM	-3.01
10 µM	-2.89
31.6228 µM	-1.8
100 µM	1.18

COc1cc(OC)nc(Sc2cccc(Cl)c2C(=O)O)n1 [Pyrithiobac-sodium]
Details	LDH release cytotoxicity [%]
0.03162 µM	-1.21
0.1 µM	-0.445
0.3162278 µM	-0.467
1 µM	-0.953
3.16228 µM	-0.133
10 µM	0.758
31.6228 µM	0.654
100 µM	2.53

O=C1C(=O)C(c2ccc(O)c(O)c2)Oc2cc(O)cc(O)c21 (centres undefined) [Quercetin]
Details	LDH release cytotoxicity [%]
0.03162 µM	-0.715
0.1 µM	-0.382
0.3162278 µM	-1.09
1 µM	-1.24
3.16228 µM	-0.569
10 µM	-1.09
31.6228 µM	-1.1
100 µM	10.6

O=C(O)c1c(Cl)ccc2cc(Cl)cnc12 [Quinclorac]
Details	LDH release cytotoxicity [%]
0.03162 µM	-0.412
0.1 µM	-0.369
0.3162278 µM	-0.616
1 µM	-0.762
3.16228 µM	-0.281
10 µM	-0.297
31.6228 µM	0.046
100 µM	0.495

c1ccc2ncccc2c1 [Quinoline]
Details	LDH release cytotoxicity [%]
0.03162 µM	-1.44
0.1 µM	0.113
0.3162278 µM	-0.853
1 µM	-1.155
3.16228 µM	0.144
10 µM	-1.28
31.6228 µM	-0.47
100 µM	2.26

Fc1ccc(Oc2ccnc3cc(Cl)cc(Cl)c23)cc1 [Quinoxyfen]
Details	LDH release cytotoxicity [%]
0.03162 µM	-0.928
0.1 µM	-1.42
0.3162278 µM	-1.39
1 µM	-0.911
3.16228 µM	-1.44
10 µM	-0.367
31.6228 µM	-0.837
100 µM	3.32

CCOC(=O)C(C)Oc1ccc(Oc2cnc3cc(Cl)ccc3n2)cc1 (centres undefined) [Quizalofop-ethyl]
Details	LDH release cytotoxicity [%]
0.0272 µM	-0.606
0.086 µM	-0.619
0.271956 µM	-0.991
0.86 µM	-1.42
2.71956 µM	-0.919
8.6 µM	-0.541
27.1956 µM	-0.469
86 µM	-0.0561

O=C(c1ccc(OCCN2CCCCC2)cc1)c1c(-c2ccc(O)cc2)sc2cc(O)ccc12 [Raloxifene hydrochloride]
Details	LDH release cytotoxicity [%]
0.03162 µM	-1.32
0.1 µM	-1.13
0.3162278 µM	-0.881
1 µM	-1.8
3.16228 µM	-2.08
10 µM	-1.62
31.6228 µM	-1.9
100 µM	73.39

COC(=O)C1C2CC3c4[nH]c5cc(OC)ccc5c4CCN3CC2CC(OC(=O)c2cc(OC)c(OC)c(OC)c2)C1OC (centres undefined) [Reserpine]
Details	LDH release cytotoxicity [%]
0.0267212 µM	-2.17
0.0845 µM	-2.63
0.267213 µM	-1.99
0.845 µM	-3.03
2.67212 µM	-1.69
8.45 µM	-1.52
26.7212 µM	10.5
84.5 µM	46.8

CC(C)=CC1C(C(=O)OCc2coc(Cc3ccccc3)c2)C1(C)C (centres undefined) [Resmethrin]
Details	LDH release cytotoxicity [%]
0.03162 µM	-0.985
0.1 µM	-0.737
0.3162278 µM	-0.651
1 µM	-1.31
3.16228 µM	-0.881
10 µM	-0.19
31.6228 µM	-0.451
100 µM	0.209

Oc1cccc(O)c1 [Resorcinol]
Details	LDH release cytotoxicity [%]
0.03162 µM	-0.658
0.1 µM	-1.17
0.3162278 µM	-0.864
1 µM	-1.17
3.16228 µM	-2.41
10 µM	-0.6
31.6228 µM	-0.357
100 µM	2.31

CC(C=CC1=C(C)CCCC1(C)C)=CC=CC(C)=CCO [Retinol]
Details	LDH release cytotoxicity [%]
0.03305 µM	-0.586
0.1045 µM	-1.81
0.330458 µM	-1.85
1.045 µM	-1.97
3.30458 µM	-2.34
10.45 µM	-1.67
33.0458 µM	-1.8
104.5 µM	-1.69

O=C(CCCCCCCCc1cccnc1)N1CCC(C=C(c2ccccc2)c2ccccc2)CC1 [Ro 23-7637]
Details	LDH release cytotoxicity [%]
0.03162 µM	0.3
0.1 µM	-1.044
0.3162278 µM	-0.912
1 µM	-1.28
3.16228 µM	-1.65
10 µM	-1.03
31.6228 µM	11.7
100 µM	63.3

C=C(C)C1Cc2c(ccc3c2OC2COc4cc(OC)c(OC)cc4C2C3=O)O1 (centres undefined) [Rotenone]
Details	LDH release cytotoxicity [%]
0.03162 µM	-3.41
0.1 µM	-3.52
0.3162278 µM	-4.58
1 µM	4.61
3.16228 µM	19.6
10 µM	48.4
31.6228 µM	71.8
100 µM	72.3

C=CCC1=C(C)C(OC(=O)C2C(C=C(C)C)C2(C)C)CC1=O (centres undefined) [S-Bioallethrin]
Details	LDH release cytotoxicity [%]
0.0147 µM	-2.51
0.0465 µM	-1.46
0.147046 µM	-1.76
0.465 µM	-2.13
1.4704591 µM	-1.73
4.65 µM	-1.51
14.7046 µM	-0.957
46.5 µM	0.422

C=CCc1ccc2c(c1)OCO2 [Safrole]
Details	LDH release cytotoxicity [%]
0.03162 µM	-1.32
0.1 µM	-2.757
0.3162278 µM	-3.53
1 µM	-4.07
3.16228 µM	-3.36
10 µM	-2.27
31.6228 µM	-1.93
100 µM	1.79
